Calls of active or inactive are those of the source. No cut-off for these calls is given here.
Assays:
[1] = test system: Rattus norvegicus; assay: Effect on urinary excretion of prostaglandin in adenine rich diet fed LWH:Wistar rat assessed as urine TXB2 level per 24 hrs at […], ip administered from day 7 to day 12 of adenine ingestion; assay type: functional
[2] = test system: Rattus norvegicus; assay: Increase in urinary excretion of prostaglandin E2 in adenine rich diet fed LWH:Wistar rat at […], ip administered from day 7 to day 12 of adenine ingestion; assay type: functional, organism-based; details: Urine
[3] = test system: Rattus norvegicus; assay: Protection against renal failure in adenine rich diet fed LWH:Wistar rat up to […], ip administered once daily from day 7 to day 12 of adenine ingestion; assay type: functional, organism-based
[4] = test system: Rattus norvegicus; assay: Decrease in urinary excretion of thromboxane B2 in adenine rich diet fed LWH:Wistar rat at […], ip administered from day 7 to day 12 of adenine ingestion; assay type: functional, Urine; set-up: scale not given: the % may be the effect or the level left
[5] = test system: Rattus norvegicus; assay: Effect on urinary excretion of prostaglandin in adenine rich diet fed LWH:Wistar rat assessed as urine prostaglandin E2 level per 24 hrs at […], ip administered from day 7 to day 12 of adenine ingestion; assay type: functional
[6] = test system: Rattus norvegicus; assay: Effect on urinary excretion of prostaglandin in adenine rich diet fed LWH:Wistar rat assessed as urine 6-keto-PGF1-alpha level per 24 hrs at […], ip administered from day 7 to day 12 of adenine ingestion; assay type: functional

## O=C(/C=C/c1ccc(O)c2c1[C@H](C(=O)O[C@H](Cc1ccc(O)c(O)c1)C(=O)[O-])[C@@H](c1ccc(O)c(O)c1)O2)O[C@H](Cc1ccc(O)c(O)c1)C(=O)[O-].[Mg+2] [MAGNESIUM LITHOSPERMATE B]
[1]
  Activity: 23.3 ng
[2]
  Activity: Active
[3]
  Activity: Active
[4]
  Activity: 36%
[5]
  Activity: 72.5 ng
[6]
  Activity: 20.7 ng

Reference: ChEMBL document CHEMBL1151155, “Effect of magnesium lithospermate B on urinary prostaglandins in rats with renal failure” (1990)
